Patent US9492471B2, “Methods of treating a disease or disorder associated with Bruton'S Tyrosine Kinase” (Celgene Avilomics Research, Inc., priority 2013, dated 2016)
Read-outs that look alike come from different tables or passages of the source.

How the values were obtained:
Assay in all cases: HotSpot kinase profiling
Type in all cases: biochemical
WNK2 = molecular target: T1, WNK2 (Homo sapiens, UniProt Q9Y3S1)
T1 construct: purchased Reaction Biology Corp
Outline: (§1)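 P81 filtration radiometric readout; 2 h incubation at room temperature; 0.1% phosphoric acid wash; DMSO negative control; % inhibition, mean of replicate runs.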

AKT3 = molecular target: T2, AKT3 (Homo sapiens, UniProt Q9Y243)
T2 construct: purchased Reaction Biology Corp
T2 sequence (Q9Y243 whole entry): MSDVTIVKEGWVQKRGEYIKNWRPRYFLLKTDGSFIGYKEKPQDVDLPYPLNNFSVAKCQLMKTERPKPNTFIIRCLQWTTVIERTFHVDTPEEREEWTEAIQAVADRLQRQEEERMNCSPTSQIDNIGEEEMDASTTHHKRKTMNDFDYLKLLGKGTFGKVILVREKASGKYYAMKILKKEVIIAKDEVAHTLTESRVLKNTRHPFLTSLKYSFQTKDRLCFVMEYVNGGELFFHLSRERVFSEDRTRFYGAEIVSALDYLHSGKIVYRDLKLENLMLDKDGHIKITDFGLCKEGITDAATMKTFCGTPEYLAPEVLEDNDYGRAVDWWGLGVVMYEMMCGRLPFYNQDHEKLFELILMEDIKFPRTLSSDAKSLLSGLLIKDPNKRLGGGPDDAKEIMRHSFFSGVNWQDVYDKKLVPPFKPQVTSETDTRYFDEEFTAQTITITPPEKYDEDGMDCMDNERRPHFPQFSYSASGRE
Outline: as §1

DAPK2 = molecular target: T3, DAPK2 (Homo sapiens, UniProt Q9UIK4)
T3 construct: purchased Reaction Biology Corp
T3 sequence (Q9UIK4 whole entry): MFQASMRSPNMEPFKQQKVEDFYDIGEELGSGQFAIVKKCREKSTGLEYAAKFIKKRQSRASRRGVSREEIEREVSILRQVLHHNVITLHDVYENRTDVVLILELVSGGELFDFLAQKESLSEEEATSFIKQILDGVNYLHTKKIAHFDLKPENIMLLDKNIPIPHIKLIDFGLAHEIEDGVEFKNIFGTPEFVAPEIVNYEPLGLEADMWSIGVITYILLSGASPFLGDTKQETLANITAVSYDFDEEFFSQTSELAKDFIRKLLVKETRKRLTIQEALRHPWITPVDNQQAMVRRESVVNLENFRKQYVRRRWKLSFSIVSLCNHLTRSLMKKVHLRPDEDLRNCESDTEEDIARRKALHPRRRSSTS
Outline: as §1

NEK11 = molecular target: T4, NEK11 (Homo sapiens, UniProt Q8NG66)
T4 construct: purchased Reaction Biology Corp
T4 sequence (Q8NG66 1-645): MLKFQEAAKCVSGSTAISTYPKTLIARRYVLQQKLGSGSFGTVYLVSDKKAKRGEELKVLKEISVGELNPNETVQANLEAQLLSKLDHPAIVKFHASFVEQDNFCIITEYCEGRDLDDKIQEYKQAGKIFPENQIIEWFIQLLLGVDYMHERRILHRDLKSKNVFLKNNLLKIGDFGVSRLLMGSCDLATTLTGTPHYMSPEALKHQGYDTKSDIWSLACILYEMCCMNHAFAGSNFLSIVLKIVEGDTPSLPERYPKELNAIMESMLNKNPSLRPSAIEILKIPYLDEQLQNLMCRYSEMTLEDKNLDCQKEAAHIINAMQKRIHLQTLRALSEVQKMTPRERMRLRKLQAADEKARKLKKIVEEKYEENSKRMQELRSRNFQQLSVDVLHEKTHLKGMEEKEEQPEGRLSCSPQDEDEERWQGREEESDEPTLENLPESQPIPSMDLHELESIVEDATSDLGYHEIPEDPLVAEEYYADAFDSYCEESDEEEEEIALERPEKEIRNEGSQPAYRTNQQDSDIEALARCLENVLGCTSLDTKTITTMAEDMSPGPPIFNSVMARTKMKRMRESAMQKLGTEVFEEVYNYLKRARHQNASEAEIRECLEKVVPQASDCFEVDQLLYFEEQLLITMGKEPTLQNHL
Outline: as §1

SGK2 = molecular target: T5, SGK2 (Homo sapiens, UniProt Q9HBY8)
T5 construct: purchased Reaction Biology Corp
T5 sequence (Q9HBY8 1-367): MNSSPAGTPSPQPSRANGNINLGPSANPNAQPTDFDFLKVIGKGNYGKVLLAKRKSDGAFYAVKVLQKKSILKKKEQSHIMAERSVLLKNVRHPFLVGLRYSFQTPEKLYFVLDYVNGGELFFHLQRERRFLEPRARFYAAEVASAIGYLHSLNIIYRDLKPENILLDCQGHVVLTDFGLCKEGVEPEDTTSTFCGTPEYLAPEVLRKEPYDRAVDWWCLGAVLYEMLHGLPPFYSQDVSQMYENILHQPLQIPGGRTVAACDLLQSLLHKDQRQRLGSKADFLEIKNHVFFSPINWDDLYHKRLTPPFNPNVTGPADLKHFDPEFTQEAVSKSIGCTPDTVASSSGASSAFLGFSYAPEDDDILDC
Outline: as §1

P38b/MAPK11 = molecular target: T6, P38b/MAPK11 (Homo sapiens, UniProt Q15759)
T6 construct: purchased Reaction Biology Corp
T6 sequence (Q15759 whole entry): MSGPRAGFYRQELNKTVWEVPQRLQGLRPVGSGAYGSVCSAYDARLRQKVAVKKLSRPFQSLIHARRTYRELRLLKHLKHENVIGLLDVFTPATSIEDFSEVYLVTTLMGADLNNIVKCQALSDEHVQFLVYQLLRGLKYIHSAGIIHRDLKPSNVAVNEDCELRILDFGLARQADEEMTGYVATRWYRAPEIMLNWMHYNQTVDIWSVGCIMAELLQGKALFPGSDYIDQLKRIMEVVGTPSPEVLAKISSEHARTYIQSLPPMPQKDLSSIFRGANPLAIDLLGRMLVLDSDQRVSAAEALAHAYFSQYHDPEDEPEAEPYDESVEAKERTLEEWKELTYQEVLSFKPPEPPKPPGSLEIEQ
Outline: as §1

EPHA4 = molecular target: T7, EPHA4 (Homo sapiens, UniProt P54764)
T7 construct: purchased Reaction Biology Corp
Outline: as §1

Btk = molecular target: T8, Btk (Homo sapiens, UniProt Q06187)
T8 construct: purchased Reaction Biology Corp
T8 sequence (Q06187 whole entry): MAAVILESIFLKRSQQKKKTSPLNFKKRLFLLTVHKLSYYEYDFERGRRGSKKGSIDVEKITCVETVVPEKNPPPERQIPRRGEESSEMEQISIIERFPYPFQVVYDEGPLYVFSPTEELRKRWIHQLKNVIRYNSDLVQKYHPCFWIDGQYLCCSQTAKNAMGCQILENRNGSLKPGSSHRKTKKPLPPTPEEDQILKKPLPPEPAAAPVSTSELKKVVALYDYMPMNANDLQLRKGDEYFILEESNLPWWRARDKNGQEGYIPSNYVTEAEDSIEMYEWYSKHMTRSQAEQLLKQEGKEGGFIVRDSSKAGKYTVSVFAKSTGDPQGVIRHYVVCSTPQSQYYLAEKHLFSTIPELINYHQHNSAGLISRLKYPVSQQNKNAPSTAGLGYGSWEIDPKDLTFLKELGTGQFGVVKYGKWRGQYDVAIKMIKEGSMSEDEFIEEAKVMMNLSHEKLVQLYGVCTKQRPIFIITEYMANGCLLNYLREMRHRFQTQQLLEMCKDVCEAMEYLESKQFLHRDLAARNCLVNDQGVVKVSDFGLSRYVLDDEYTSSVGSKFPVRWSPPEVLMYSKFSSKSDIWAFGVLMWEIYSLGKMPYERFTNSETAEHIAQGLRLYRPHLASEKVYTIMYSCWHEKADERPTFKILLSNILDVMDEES
Outline: as §1

ABL1 = molecular target: T9, ABL1 (Homo sapiens, UniProt P00519)
T9 construct: purchased Reaction Biology Corp
Outline: as §1

CAMK1b = molecular target: T10, CAMK1b (Homo sapiens, UniProt Q6P2M8)
T10 construct: purchased Reaction Biology Corp
T10 sequence (Q6P2M8 whole entry): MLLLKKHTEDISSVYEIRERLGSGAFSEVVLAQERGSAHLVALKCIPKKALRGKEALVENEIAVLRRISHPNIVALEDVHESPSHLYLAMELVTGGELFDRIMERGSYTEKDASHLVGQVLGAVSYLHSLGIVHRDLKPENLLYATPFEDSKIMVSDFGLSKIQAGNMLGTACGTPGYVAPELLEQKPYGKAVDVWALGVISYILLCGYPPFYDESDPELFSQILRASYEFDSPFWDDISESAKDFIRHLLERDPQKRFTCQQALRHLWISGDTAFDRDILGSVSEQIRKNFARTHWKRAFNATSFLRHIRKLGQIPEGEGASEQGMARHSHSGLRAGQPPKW
Outline: as §1

[1] = read-out: % Enzyme Activity (relative to DMSO controls) Run 1
[2] = read-out: % Enzyme Activity (relative to DMSO controls) Run 2

T1 sequence (Q9Y3S1 whole entry): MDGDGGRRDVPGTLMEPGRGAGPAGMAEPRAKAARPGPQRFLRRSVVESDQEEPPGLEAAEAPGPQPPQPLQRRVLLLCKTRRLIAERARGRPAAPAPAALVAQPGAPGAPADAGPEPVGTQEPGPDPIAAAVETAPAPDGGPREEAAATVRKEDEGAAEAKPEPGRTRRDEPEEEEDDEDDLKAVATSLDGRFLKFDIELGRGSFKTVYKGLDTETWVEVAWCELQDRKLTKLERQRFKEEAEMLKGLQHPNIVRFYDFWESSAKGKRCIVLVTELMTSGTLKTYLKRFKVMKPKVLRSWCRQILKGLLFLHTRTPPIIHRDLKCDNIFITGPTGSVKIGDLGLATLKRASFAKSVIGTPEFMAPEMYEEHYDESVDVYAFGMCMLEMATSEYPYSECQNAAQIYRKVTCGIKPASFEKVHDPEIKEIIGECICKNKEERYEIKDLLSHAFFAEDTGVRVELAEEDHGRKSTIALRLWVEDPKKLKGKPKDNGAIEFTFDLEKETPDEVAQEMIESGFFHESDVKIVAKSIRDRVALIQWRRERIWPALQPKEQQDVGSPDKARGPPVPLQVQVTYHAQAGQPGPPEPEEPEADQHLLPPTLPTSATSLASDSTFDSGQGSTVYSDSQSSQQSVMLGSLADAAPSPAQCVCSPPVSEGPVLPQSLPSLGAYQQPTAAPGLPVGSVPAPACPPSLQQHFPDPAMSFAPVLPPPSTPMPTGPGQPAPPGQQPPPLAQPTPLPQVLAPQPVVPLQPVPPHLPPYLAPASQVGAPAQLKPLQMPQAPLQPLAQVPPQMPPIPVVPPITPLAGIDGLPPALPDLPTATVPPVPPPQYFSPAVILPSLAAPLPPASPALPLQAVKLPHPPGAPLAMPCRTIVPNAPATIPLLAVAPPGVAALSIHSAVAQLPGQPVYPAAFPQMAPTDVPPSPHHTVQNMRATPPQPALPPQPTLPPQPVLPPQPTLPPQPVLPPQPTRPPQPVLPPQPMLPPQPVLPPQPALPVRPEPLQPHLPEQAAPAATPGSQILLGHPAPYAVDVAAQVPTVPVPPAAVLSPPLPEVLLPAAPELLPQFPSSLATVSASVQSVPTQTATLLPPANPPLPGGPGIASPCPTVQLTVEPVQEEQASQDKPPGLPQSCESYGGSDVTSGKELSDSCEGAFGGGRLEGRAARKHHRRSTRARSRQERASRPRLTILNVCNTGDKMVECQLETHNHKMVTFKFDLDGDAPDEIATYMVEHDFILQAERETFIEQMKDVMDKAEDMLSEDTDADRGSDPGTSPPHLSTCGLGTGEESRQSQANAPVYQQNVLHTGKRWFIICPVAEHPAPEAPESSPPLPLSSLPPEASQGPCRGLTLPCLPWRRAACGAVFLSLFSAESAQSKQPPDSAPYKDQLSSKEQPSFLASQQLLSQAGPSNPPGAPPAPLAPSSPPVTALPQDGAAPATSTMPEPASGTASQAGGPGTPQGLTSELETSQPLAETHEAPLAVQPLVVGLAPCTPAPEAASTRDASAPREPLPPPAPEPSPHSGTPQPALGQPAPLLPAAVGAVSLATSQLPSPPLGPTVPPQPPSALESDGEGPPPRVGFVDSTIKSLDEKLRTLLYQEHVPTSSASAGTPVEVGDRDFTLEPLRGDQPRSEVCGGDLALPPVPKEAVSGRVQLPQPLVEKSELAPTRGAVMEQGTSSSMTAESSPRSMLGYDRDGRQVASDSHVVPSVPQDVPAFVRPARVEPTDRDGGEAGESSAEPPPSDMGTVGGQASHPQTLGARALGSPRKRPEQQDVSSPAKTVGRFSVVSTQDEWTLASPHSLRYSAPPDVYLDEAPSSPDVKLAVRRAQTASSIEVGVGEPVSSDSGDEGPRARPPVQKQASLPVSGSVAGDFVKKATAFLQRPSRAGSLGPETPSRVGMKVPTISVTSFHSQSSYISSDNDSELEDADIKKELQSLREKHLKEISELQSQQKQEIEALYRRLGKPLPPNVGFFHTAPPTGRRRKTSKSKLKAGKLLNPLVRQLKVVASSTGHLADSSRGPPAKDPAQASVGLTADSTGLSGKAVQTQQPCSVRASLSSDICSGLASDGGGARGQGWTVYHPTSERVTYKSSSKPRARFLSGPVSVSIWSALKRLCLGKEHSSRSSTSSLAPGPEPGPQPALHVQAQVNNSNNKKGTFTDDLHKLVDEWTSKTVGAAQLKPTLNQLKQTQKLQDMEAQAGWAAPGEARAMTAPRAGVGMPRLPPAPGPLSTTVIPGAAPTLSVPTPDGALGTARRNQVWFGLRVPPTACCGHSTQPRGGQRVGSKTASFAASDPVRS

`C=CC(=O)Nc1cccc(Nc2nc(Nc3ccc(OCCOC)c(F)c3)ncc2F)c1` [Compound 2] showed an inhibition at 3 µM (WNK2) of 6.19%, a remaining activity at 3 µM (WNK2; [1]) of 92.3% and a remaining activity at 3 µM (WNK2; [2]) of 95.3%. For the same compound, the inhibition at 3 µM (AKT3) was -6.85%, the remaining activity at 3 µM (AKT3; [1]) was 111% and the remaining activity at 3 µM (AKT3; [2]) was 103%. The inhibition at 3 µM (DAPK2) was -9.89%, the remaining activity at 3 µM (DAPK2; [1]) was 108% and the remaining activity at 3 µM (DAPK2; [2]) was 112%. For the same compound, the inhibition at 3 µM (NEK11) was 7.32%, the remaining activity at 3 µM (NEK11; [1]) was 92.5% and the remaining activity at 3 µM (NEK11; [2]) was 92.8%. The inhibition at 3 µM (SGK2) was 26%, the remaining activity at 3 µM (SGK2; [1]) was 71.4% and the remaining activity at 3 µM (SGK2; [2]) was 76.6%. It also gave an inhibition at 3 µM (P38b/MAPK11) of -1.41%, a remaining activity at 3 µM (P38b/MAPK11; [1]) of 102% and a remaining activity at 3 µM (P38b/MAPK11; [2]) of 101%. For the same compound, the inhibition at 3 µM (EPHA4) was 9.09%, the remaining activity at 3 µM (EPHA4; [1]) was 92.9% and the remaining activity at 3 µM (EPHA4; [2]) was 89%. For the same compound, the inhibition at 3 µM (Btk) was 95.5%, the remaining activity at 3 µM (Btk; [1]) was 3.69% and the remaining activity at 3 µM (Btk; [2]) was 5.4%. For the same compound, the inhibition at 3 µM (ABL1) was 54.7%, the remaining activity at 3 µM (ABL1; [1]) was 45.4% and the remaining activity at 3 µM (ABL1; [2]) was 45.2%. It also gave an inhibition at 3 µM (CAMK1b) of -4.43%, a remaining activity at 3 µM (CAMK1b; [1]) of 104% and a remaining activity at 3 µM (CAMK1b; [2]) of 105%.
